Experimental data taken from PMC8743659, “C1632 suppresses the migration and proliferation of non‐small‐cell lung cancer cells involving LIN28 and FGFR1 pathway” (Journal of Cellular and Molecular Medicine, 2021).
Where two headings read alike, the source gives them in different places.

Key:
[1] = Pharmacokinetic study, plasma by UHPLC-MS/MS; assay type: in vivo, Sprague-Dawley (SD) rats; conditions: for MRT last: read-out: MRT(0-t); for half-life: read-out: t1/2z (converted)
Method: Agilent 1290 UHPLC system and 6420 series Triple‐Quadrupole Tandem Mass Spectrometer (Agilent Corporation) maintained at 35°C with a ZORBAX Eclipse Plus C18 column (1.8 μm, 2.1 × 50 mm). The mobile phase was a gradient elution program consisting of solvent A with solvent B at a flow rate of 0.4 ml/min. Mobile phase A was 0.1% formic acid in water (v/v), and mobile phase B was acetonitrile. The optimal gradient elution program was as follows: 0–0.5 min, linear from 80% to 5% A; 0.5–1.5 min, 5% A; 1.5–1.6 min, linear from 5% to 80% A. The post‐time was 1.3 min for equilibration of the column and the total runtime was 1.8 min. The mass spectrometer was acquired in an ESI‐positive mode with multiple reaction monitoring (MRM). Instrument control and data acquisition were performed on the MassHunter Agilent Software (version B.07.00).
The desolation gas (nitrogen) flow was set to 10 L/h: the capillary voltage: 4000 V; nebulizing gas and drying gas (both nitrogen): 45 psi and 350°C, respectively. The MRM mode with m/z 282.2→76.9 for C1632 and m/z 282.1→194.0 for IS was used for quantitative analysis.
Male SD rats were starved for 12 h before the experiment. But, tap water was available ad libitum. C1632 was administered orally or intravenously at the dose of 20 mg/kg (p.o.), 4 mg/kg (i.v.), respectively (n = 6). Blood samples were collected into heparinized polythene tubes 0.083, 0.25, 0.5, 1, 2, 4, 6, 9, 12, 24 h after dosing. As followed, the samples were centrifuged at 14,954 g for 10 min. Add acetonitrile (400 µl) and IS (20 µl) into collected plasma samples (100 µl). Thereafter, the samples were vortexed for 2 min, followed by centrifugation at 14,954 g for 10 min. Remove the supernatants to 1.5 ml tube and the sample is ready for detection by established UHPLC‐MS/MS assay. The injection volume is 6 µl. The pharmacokinetic parameters were determined using DAS software (Version 3.0).

FGFR1 = assay: Western blot of FGFR1 signalling in NSCLC cells; assay type: cell-based, human; conditions: A549 and A549R cells, C1632 5 days, dose-dependent
Method: The total cell protein was extracted and denaturized at 95°C for 10 min. Samples were separated in SDS‐PAGE gel, then transferred to a PVDF membrane. […] Blots were probed with relevant primary antibodies against FGFR1 (CST), p‐FGFR1 (CST), MAPK (CST), p‐MAPK (CST), FAK (CST), p‐FAK (CST), MMP‐9 (CST), LIN28B (CST), GAPDH (CST), and β‐actin (proteintech) overnight at 4°C, respectively. Then the lanes were detected with HRP‐conjugated secondary antibodies and visualized using WESTAR SUPERNOVA kit ([…]).

[2] = tested on: focal adhesion kinase (FAK); assay: Western blot of p-FAK; assay type: cell-based, human; conditions: A549 and A549R cells, 5 days
Method: The total cell protein was extracted and denaturized at 95°C for 10 min. Samples were separated in SDS‐PAGE gel, then transferred to a PVDF membrane. Then this membrane was blocked with 5% non‐fat milk (solved in TBST) for 2.5 h at room temperature. Blots were probed with relevant primary antibodies against FGFR1 (CST), p‐FGFR1 (CST), MAPK (CST), p‐MAPK (CST), FAK (CST), p‐FAK (CST), MMP‐9 (CST), LIN28B (CST), GAPDH (CST), and β‐actin (proteintech) overnight at 4°C, respectively. Then the lanes were detected with HRP‐conjugated secondary antibodies and visualized using WESTAR SUPERNOVA kit (CYANAGEN).

[3] = male, Sprague-Dawley, iv, rat plasma, i.v. 4 mg/kg
[4] = male, Sprague-Dawley, po, rat plasma, p.o. 20 mg/kg

AUC(0-t) [1, 3]: 4090 ± 1630 ng·h/mL
Cmax [1, 3]: 2070 ± 338 ng/mL
Tmax [1, 3]: 0.53 ± 0.74 h
MRT last [1, 3]: 1.57 ± 0.74 h
half-life [1, 3]: 1.14 ± 0.52 h
AUC(0-t) [1, 4]: 9100 ± 3830 ng·h/mL
Cmax [1, 4]: 4240 ± 2680 ng/mL
Tmax [1, 4]: 1.04 ± 0.78 h
CL/F ([1]; male, Sprague-Dawley, po, rat plasma, p.o. 20 mg/kg, read-out: CLz/F (converted)): 46.2 mL/min/kg
MRT last [1, 4]: 1.88 ± 0.42 h
Vd/F ([1]; male, Sprague-Dawley, po, rat plasma, p.o. 20 mg/kg, read-out: Vz/F): 4.54 ± 4.68 L/kg
half-life [1, 4]: 1.05 ± 0.6 h
bioavailability ([1]; male, Sprague-Dawley, rat, plasma, oral, 20 mg/kg, rats, p.o. 20 mg/kg vs i.v. 4 mg/kg, read-out: F (bioavailability)): 44.5%
time of second peak of the plasma concentration-time curve ([1]; oral administration group, 20 mg/kg): 1 h
CLz/F ([1]; rat plasma, i.v. 4 mg/kg): 18.8 ± 8.5 mL/min/kg
Vz/F ([1]; rat plasma, i.v. 4 mg/kg): 2.05 ± 1.66 L/kg
Compound: CC(=O)N(C)c1cccc(-c2ccc3nnc(C)n3n2)c1 [C1632]
expression of FGFR1 and FGFR1 phosphorylation (FGFR1): inhibited
phosphorylation of the downstream kinase MAPK (FGFR1): inhibited
phosphorylation of FAK [2]: efficiently decreased
